# Test results: patent US11464763B2, “Parasiticidal compositions comprising an isoxazoline active agent, methods and uses thereof” (BOEHRINGER INGELHEIM ANIMAL HEALTH USA INC., priority 2011, dated 2022)
# Legend:
# Assay type in all cases: in vivo
# [1] = tested on: Rhipicephalus (Boophilus) microplus; test: Pour-on tick count efficacy against Rhipicephalus (Boophilus) microplus in cattle (Example 15)
# Protocol: (§1) The efficacy of two pour-on formulations of the invention comprising Compound A at doses of 2.5 mg/kg and 10 mg/kg were tested against infestations of Rhipicephalus (Boophilus) microplus ticks compared with an untreated control. Five healthy head of cattle of 6 to 15 months of age weighing between 100 to 200 kg were used in each study group. Cattle in Group 1 were untreated (control). Cattle in Group 2 were treated on Day 0 with a pour-on formulation comprising Compound A at a concentration of 2.5% (w/v) in DES at a dose of 2.5 mg/kg; and cattle in Group 3 were treated on Day 0 with a pour-on formulation comprising Compound A at a concentration of 10% (w/v) in DES at a dose of 10 mg/kg. Several weeks before treatment, cattle are infested three times a week with approximately 2500 Rhipicephalus (Boophilus) microplus larvae to establish ongoing infestations. Cattle in Groups 2 and 3 were treated with the respective compositions on Day 0 by measuring the required amount of the solution into a marked disposable syringe and applying the material evenly along the mid-line of the back of each animal from the withers to the tail head.
# (§2) Each animal was challenged by infestation with approximately 5000 R. microplus larvae on Days 7 and 21 and every 14 days thereafter. Ticks dropping from each animal in the previous 24 hours were collected daily and counted from Day 1 until the end of the study. Since the life cycle of the ticks from the point of infestation with larvae until engorged ticks fall off is approximately 21 days (average), the assessment of efficacy for the challenges on Days 7 and 21 and every 14 days thereafter, was done for a range of 7 or 8 days starting approximately 21 days after the challenge. The assessment of efficacy at the beginning of the study was done from day 1 until Day 21.
# (§3) In addition, the ticks collected were weighed as a group to measure the impact of the treatment on the weight gain of the ticks compared to the control to assess the vitality and reproductive capability of the treated ticks. […] Tables 16A and 16B show the % efficacy of the two pour-on formulations based on the weight of the ticks collected. […] As evidenced from the tables and the figures, the pour-on formulations of the invention at both 2.5 mg/kg and 10 mg/kg provide excellent efficacy against Rhipicephalus (Boophilus) microplus ticks for an extended period of time. […] Furthermore, as shown in Tables 16A and 16B, the two pour-on compositions were extremely effective against ticks based on the weight of the ticks collected. […] The extremely long lasting efficacy above 90% for pour-on composition against Rhipicephalus (Boophilus) microplus ticks is remarkable compared with pour-on formulations known in the art.
# Ctenocephalides felis = test: Spot-on efficacy against Ctenocephalides felis fleas on dogs, 40% DES/DMI (Example 5); conditions: 4.0 mg/kg
# Protocol: (§4) The efficacy of a formulation comprising an isoxazoline compound (Cmpd. A) in a carrier comprising 40% DES/DMI against Ctenocephalides felis fleas and Rhipicephalus sanguineus ticks in Dogs was studied. […] Three treatment groups containing three dogs each were evaluated. All dogs were treated once topically on Day 0 by parting the hair and applying the solution from a syringe directly onto the skin in a single spot on the midline of the neck between the base of the skull and the shoulder blades.
# (§5) Treatment Group 1 was a placebo control and received 0.067 mL/kg of body weight. Treatment Group 2 was administered a topical spot-on formulation comprising 6.0% (w/v) Cmpd. A in 40% DES/DMI to deliver a dose of 4.0 mg/kg body weight. Treatment Group 3 was administered a topical spot-on formulation comprising 12% (w/v) Cmpd. A in 40% DES/DMI to deliver a dose of 4.0 mg/kg body weight.
# All dogs were infested with approximately 100 C. felis on Days −1, 7, 14, 21, 28, 35 and 42. Fleas were counted upon removal from dogs approximately 24 hours post infestation on Days 1, 8, 15, 22, 29, 36 and 43. The % reduction (efficacy) of each Treatment Group over time is listed in Tables 6A, 6B and 7, respectively.
# Rhipicephalus sanguineus = test: Spot-on efficacy against Rhipicephalus sanguineus ticks on dogs, 40% DES/DMI (Example 5); conditions: 4.0 mg/kg
# Protocol: as §4, §5
# [2] = tested on: Rhipicephalus (Boophilus) microplus; test: Pour-on tick weight efficacy against Rhipicephalus (Boophilus) microplus in cattle (Example 15)
# Protocol: as §1, §2, §3
# [3] = Group 2: pour-on 2.5% (w/v) in DES, 2.5 mg/kg, Day 1-21
# [4] = Group 2: pour-on 2.5% (w/v) in DES, 2.5 mg/kg, Day 28-34, Challenge Day 7
# [5] = Group 2: pour-on 2.5% (w/v) in DES, 2.5 mg/kg, Day 41-48, Challenge Day 21
# [6] = Group 2: pour-on 2.5% (w/v) in DES, 2.5 mg/kg, Day 55-62, Challenge Day 35
# [7] = Group 2: pour-on 2.5% (w/v) in DES, 2.5 mg/kg, Day 69-76, Challenge Day 49
# [8] = Group 2: pour-on 2.5% (w/v) in DES, 2.5 mg/kg, Day 83-90, Challenge Day 63
# [9] = Group 2: pour-on 2.5% (w/v) in DES, 2.5 mg/kg, Day 97-104, Challenge Day 77
# [10] = Group 2: pour-on 2.5% (w/v) in DES, 2.5 mg/kg, Day 111-118, Challenge Day 91
# [11] = Group 2: pour-on 2.5% (w/v) in DES, 2.5 mg/kg, Day 132-139, Challenge Day 112
# [12] = Group 2: pour-on 2.5% (w/v) in DES, 2.5 mg/kg, Day 146-153, Challenge Day 126
# [13] = Group 2: pour-on 2.5% (w/v) in DES, 2.5 mg/kg, Day 160-167, Challenge Day 140
# [14] = Group 3: pour-on 10% (w/v) in DES, 10 mg/kg, Day 1-21
# [15] = Group 3: pour-on 10% (w/v) in DES, 10 mg/kg, Day 28-34, Challenge Day 7
# [16] = Group 3: pour-on 10% (w/v) in DES, 10 mg/kg, Day 41-48, Challenge Day 21
# [17] = Group 3: pour-on 10% (w/v) in DES, 10 mg/kg, Day 55-62, Challenge Day 35
# [18] = Group 3: pour-on 10% (w/v) in DES, 10 mg/kg, Day 69-76, Challenge Day 49
# [19] = Group 3: pour-on 10% (w/v) in DES, 10 mg/kg, Day 83-90, Challenge Day 63
# [20] = Group 3: pour-on 10% (w/v) in DES, 10 mg/kg, Day 97-104, Challenge Day 77
# [21] = Group 3: pour-on 10% (w/v) in DES, 10 mg/kg, Day 111-118, Challenge Day 91
# [22] = Group 3: pour-on 10% (w/v) in DES, 10 mg/kg, Day 132-139, Challenge Day 112
# [23] = Group 3: pour-on 10% (w/v) in DES, 10 mg/kg, Day 146-153, Challenge Day 126
# [24] = Group 3: pour-on 10% (w/v) in DES, 10 mg/kg, Day 160-167, Challenge Day 140
structure (smiles),measurement,setting,value
"O=C(CNC(=O)c1ccc(C2=NOC(c3cc(Cl)cc(C(F)(F)F)c3)(C(F)(F)F)C2)c2ccccc12)NCC(F)(F)F (stereo not shown) [Compound A, 4-[5-[3-chloro-5-(trifluoromethyl)phenyl]-4,5-dihydro-5-(trifluoromethyl)-3-isoxazolyl]-N-[2-oxo-2-[(2,2,2-trifluoroethyl)amino]ethyl]-1-naphthalanecarboxamide]",Average % Efficacy (Tick Count),[1]; [3],58.8%
same,Average % Efficacy (Tick Count),[1]; [4],75.6%
same,Average % Efficacy (Tick Count),[1]; [5],77.0%
same,Average % Efficacy (Tick Count),[1]; [6],91.2%
same,Average % Efficacy (Tick Count),[1]; [7],88.3%
same,Average % Efficacy (Tick Count),[1]; [8],90.7%
same,Average % Efficacy (Tick Count),[1]; [9],79.8%
same,Average % Efficacy (Tick Count),[1]; [10],79.0%
same,Average % Efficacy (Tick Count),[1]; [11],86.2%
same,Average % Efficacy (Tick Count),[1]; [12],30.3%
same,Average % Efficacy (Tick Count),[1]; [13],74.0%
same,Average % Efficacy (Tick Count),[1]; [14],78.1%
same,Average % Efficacy (Tick Count),[1]; [15],92.0%
same,Average % Efficacy (Tick Count),[1]; [16],98.0%
same,Average % Efficacy (Tick Count),[1]; [17],97.8%
same,Average % Efficacy (Tick Count),[1]; [18],99.3%
same,Average % Efficacy (Tick Count),[1]; [19],98.9%
same,Average % Efficacy (Tick Count),[1]; [20],92.4%
same,Average % Efficacy (Tick Count),[1]; [21],96.6%
same,Average % Efficacy (Tick Count),[1]; [22],92.4%
same,Average % Efficacy (Tick Count),[1]; [23],72.4%
same,Average % Efficacy (Tick Count),[1]; [24],85.8%
same,tick count efficacy,"[1]; pour-on 2.5 mg/kg and 10 mg/kg, for at least day 139",above 90%
same,% Reduction,"Ctenocephalides felis; Group 2: 6.0% in 40% DES/DMI, Day 1",100.0%
same,% Reduction,"Ctenocephalides felis; Group 2: 6.0% in 40% DES/DMI, Day 8",100.0%
same,% Reduction,"Ctenocephalides felis; Group 2: 6.0% in 40% DES/DMI, Day 15",100.0%
same,% Reduction,"Ctenocephalides felis; Group 2: 6.0% in 40% DES/DMI, Day 22",100.0%
same,% Reduction,"Ctenocephalides felis; Group 2: 6.0% in 40% DES/DMI, Day 29",100.0%
same,% Reduction,"Ctenocephalides felis; Group 2: 6.0% in 40% DES/DMI, Day 36",100.0%
same,% Reduction,"Ctenocephalides felis; Group 2: 6.0% in 40% DES/DMI, Day 43",99.2%
same,% Reduction,"Ctenocephalides felis; Group 3: 12% in 40% DES/DMI, Day 1",100.0%
same,% Reduction,"Ctenocephalides felis; Group 3: 12% in 40% DES/DMI, Day 8",100.0%
same,% Reduction,"Ctenocephalides felis; Group 3: 12% in 40% DES/DMI, Day 15",100.0%
same,% Reduction,"Ctenocephalides felis; Group 3: 12% in 40% DES/DMI, Day 22",100.0%
same,% Reduction,"Ctenocephalides felis; Group 3: 12% in 40% DES/DMI, Day 29",100.0%
same,% Reduction,"Ctenocephalides felis; Group 3: 12% in 40% DES/DMI, Day 36",100.0%
same,% Reduction,"Ctenocephalides felis; Group 3: 12% in 40% DES/DMI, Day 43",100.0%
same,% Reduction,"Rhipicephalus sanguineus; Group 2: 6.0% in 40% DES/DMI, Day 2",100.0%
same,% Reduction,"Rhipicephalus sanguineus; Group 2: 6.0% in 40% DES/DMI, Day 30",91.5%
same,% Reduction,"Rhipicephalus sanguineus; Group 2: 6.0% in 40% DES/DMI, Day 31",100.0%
same,% Reduction,"Rhipicephalus sanguineus; Group 2: 6.0% in 40% DES/DMI, Day 38",85.2%
same,% Reduction,"Rhipicephalus sanguineus; Group 3: 12% in 40% DES/DMI, Day 2",100.0%
same,% Reduction,"Rhipicephalus sanguineus; Group 3: 12% in 40% DES/DMI, Day 30",72.6%
same,% Reduction,"Rhipicephalus sanguineus; Group 3: 12% in 40% DES/DMI, Day 31",100.0%
same,% Reduction,"Rhipicephalus sanguineus; Group 3: 12% in 40% DES/DMI, Day 38",51.3%
same,Average % Efficacy (Tick Weight),[2]; [3],69.1%
same,Average % Efficacy (Tick Weight),[2]; [4],81.8%
same,Average % Efficacy (Tick Weight),[2]; [5],72.9%
same,Average % Efficacy (Tick Weight),[2]; [6],87.7%
same,Average % Efficacy (Tick Weight),[2]; [7],84.8%
same,Average % Efficacy (Tick Weight),[2]; [8],87.4%
same,Average % Efficacy (Tick Weight),[2]; [9],76.0%
same,Average % Efficacy (Tick Weight),[2]; [10],74.0%
same,Average % Efficacy (Tick Weight),[2]; [11],83.2%
same,Average % Efficacy (Tick Weight),[2]; [12],20.6%
same,Average % Efficacy (Tick Weight),[2]; [13],63.4%
same,Average % Efficacy (Tick Weight),[2]; [14],85.4%
same,Average % Efficacy (Tick Weight),[2]; [15],95.2%
same,Average % Efficacy (Tick Weight),[2]; [16],98.3%
same,Average % Efficacy (Tick Weight),[2]; [17],96.6%
same,Average % Efficacy (Tick Weight),[2]; [18],99.2%
same,Average % Efficacy (Tick Weight),[2]; [19],98.6%
same,Average % Efficacy (Tick Weight),[2]; [20],90.2%
same,Average % Efficacy (Tick Weight),[2]; [21],96.0%
same,Average % Efficacy (Tick Weight),[2]; [22],92.4%
same,Average % Efficacy (Tick Weight),[2]; [23],61.4%
same,Average % Efficacy (Tick Weight),[2]; [24],76.3%
